Where two headings read alike, the source gives them in different places.
Key:
E. faecalis NCTC 5957 = assay: MIC, microbroth dilution (NCCLS), Table 1; assay type: cell-based; conditions: Enterococcus faecalis, NCTC5957
Procedure: (§1) The minimum inhibitory concentration (MIC) of the compounds was determined using the microbroth dilution technique in accordance with NCCLS guidelines, employing Mueller-Hinton broth (National Committee for Clinical Laboratory Standards, NCCLS, 1995 “Methods for dilution antimicrobial susceptibility tests for bacteria that grow aerobically”—approved standard M7-A5).
(§2) The compounds were tested in isolation, at different concentrations.

E. faecalis Phillips = assay: MIC, microbroth dilution (NCCLS), Table 1; assay type: cell-based; conditions: Enterococcus faecalis
Procedure: as §1, §2

E. faecium NCTC 7171 = assay: MIC, microbroth dilution (NCCLS), Table 1; assay type: cell-based; conditions: Enterococcus faecium, NCTC7171
Procedure: as §1, §2

E. hirae ATCC 10541 = assay: MIC, microbroth dilution (NCCLS), Table 1; assay type: cell-based; conditions: Enterococcus hirae, ATCC10541
Procedure: as §1, §2

E. faecalis SFZ = assay: MIC, microbroth dilution (NCCLS), Table 1; assay type: cell-based; conditions: Enterococcus faecalis
Procedure: as §1, §2

E. faecalis 24592 = assay: MIC, microbroth dilution (NCCLS), Table 1; assay type: cell-based; conditions: Enterococcus faecalis, 24592
Procedure: as §1, §2

VRE 300 1562 = assay: MIC, microbroth dilution (NCCLS), Table 1; assay type: cell-based, Enterococcus; conditions: Enterococcus, VRE
Procedure: as §1, §2

VRE 300 2043 = assay: MIC, microbroth dilution (NCCLS), Table 1; assay type: cell-based, Enterococcus; conditions: Enterococcus, VRE
Procedure: as §1, §2

VRE 1662 = assay: MIC, microbroth dilution (NCCLS), Table 1; assay type: cell-based, Enterococcus; conditions: Enterococcus, VRE
Procedure: as §1, §2

VRE 300 1590 = assay: MIC, microbroth dilution (NCCLS), Table 1; assay type: cell-based, Enterococcus; conditions: Enterococcus, VRE
Procedure: as §1, §2

E. faecalis ATCC 29212 = assay: Checkerboard microdilution MIC with PFOB, Table 2; assay type: cell-based
In short: (§3)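 Checkerboard microdilution pairing PFOB with other antibiotics. Synergy scored by FIC index: combination FIC <0.5 synergy, 0.5-2.0 indifference, >2 antagonism, with synergy requiring at least a 4-fold reduction for each compound.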

E. faecalis 5659 (vanA) = assay: Checkerboard microdilution MIC with PFOB, Table 2; assay type: cell-based; conditions: E. faecalis 5659 (vanA)
In short: as §3

E.faecalis 78097 (van B) = assay: Checkerboard microdilution MIC with PFOB, Table 2; assay type: cell-based
In short: as §3

E. faecalis ATCC 10541 = assay: Checkerboard microdilution MIC with PFOB, Table 2; assay type: cell-based; conditions: for MIC: Enterococcus faecalis, ATCC10541
Source text: The aim of the study was to detect any synergy between PFOB and the other antibiotics. For the purposes of the study, synergy was defined in accordance with the FIC (fractional inhibitory concentration) index, as disclosed by Lorian (1991, In “Antibiotics in Laboratory Medicine” 3rd edition, Eds. Williams & Wilkins; esp. p 434-443).

Enterococcus strains = assay: MIC against Enterococcus strains, summary of Example 1; assay type: cell-based; conditions: for MIC: Enterococcus, vancomycin-susceptible strains and one vancomycin-resistant strain
Procedure: as §1, §2

[1] = system: E. faecalis SFZ (vancomycin-sensitive isolate, VSE); assay: Time-kill experiment (viable count); assay type: cell-based; conditions: FIG. 2, ceftazidime alone at 128 mg/L, PFOB alone at 64 mg/L
Source text: FIG. 2 is a graph of Log viable count (cfu per ml) against time (in hours) for the VSE isolate in the presence or absence of the drugs. […] The isolates used in the Example are purely illustrative and not especially unusual.

SMILES: CC(C)(O/N=C(\C(=O)N[C@@H]1C(=O)N2C(C(=O)[O-])=C(C[n+]3ccccc3)CS[C@H]12)c1csc(N)n1)C(=O)O [CAZ, ceftazidime]
- MIC (E. faecalis NCTC 5957): > 128 µg/mL
- MIC (E. faecalis Phillips): > 128 µg/mL
- MIC (E. faecium NCTC 7171): > 128 µg/mL
- MIC (E. hirae ATCC 10541): > 128 µg/mL
- MIC (E. faecalis SFZ): > 128 µg/mL
- MIC (E. faecalis 24592): > 128 µg/mL
- MIC (VRE 300 1562): > 128 µg/mL
- MIC (VRE 300 2043): > 128 µg/mL
- MIC (VRE 1662): > 128 µg/mL
- MIC (VRE 300 1590): > 128 µg/mL
- Synergy FIC (E. faecalis ATCC 29212; E. faecalis ATCC 29212, FIC index of PFOB + labelled partner, <0.5 = synergy): 0.188
- MIC of partner antibiotic in the presence of PFOB at 0.5 mg/L (E. faecalis ATCC 29212; E. faecalis ATCC 29212, PFOB 0.5 mg/L): >64 µg/mL
- MIC of partner antibiotic in the presence of PFOB at 1 mg/L (E. faecalis ATCC 29212; E. faecalis ATCC 29212, PFOB 1 mg/L): >64 µg/mL
- MIC of partner antibiotic in the presence of PFOB at 2 mg/L (E. faecalis ATCC 29212; E. faecalis ATCC 29212, PFOB 2 mg/L): >64 µg/mL
- MIC of partner antibiotic in the presence of PFOB at 4 mg/L (E. faecalis ATCC 29212; E. faecalis ATCC 29212, PFOB 4 mg/L): 32 µg/mL
- MIC of partner antibiotic in the presence of PFOB at 8 mg/L (E. faecalis ATCC 29212; E. faecalis ATCC 29212, PFOB 8 mg/L): 16 µg/mL
- MIC of partner antibiotic in the presence of PFOB at 16 mg/L (E. faecalis ATCC 29212; E. faecalis ATCC 29212, PFOB 16 mg/L): 8 µg/mL
- MIC of partner antibiotic in the presence of PFOB at 32 mg/L (E. faecalis ATCC 29212; E. faecalis ATCC 29212, PFOB 32 mg/L): 2 µg/mL
- MIC (E. faecalis ATCC 29212; Enterococcus faecalis, ATCC29212, E. faecalis ATCC 29212, partner antibiotic alone, read-out: MIC (alone) of Partner): > 64 µg/mL
- synergy with PFOB (E. faecalis ATCC 29212; checkerboard, E. faecalis ATCC 29212, vancomycin-susceptible, in words): marked synergy
- MIC of partner antibiotic in the presence of PFOB at 0.5 mg/L (E. faecalis 5659 (vanA); PFOB 0.5 mg/L): >64 µg/mL
- MIC of partner antibiotic in the presence of PFOB at 1 mg/L (E. faecalis 5659 (vanA); PFOB 1 mg/L): >64 µg/mL
- MIC of partner antibiotic in the presence of PFOB at 2 mg/L (E. faecalis 5659 (vanA); PFOB 2 mg/L): >64 µg/mL
- MIC of partner antibiotic in the presence of PFOB at 4 mg/L (E. faecalis 5659 (vanA); PFOB 4 mg/L): >64 µg/mL
- MIC of partner antibiotic in the presence of PFOB at 8 mg/L (E. faecalis 5659 (vanA); PFOB 8 mg/L): >64 µg/mL
- MIC of partner antibiotic in the presence of PFOB at 16 mg/L (E. faecalis 5659 (vanA); PFOB 16 mg/L): >64 µg/mL
- MIC of partner antibiotic in the presence of PFOB at 32 mg/L (E. faecalis 5659 (vanA); PFOB 32 mg/L): 0.25 µg/mL
- MIC (E. faecalis 5659 (vanA); Enterococcus faecalis, partner antibiotic alone, read-out: MIC (alone) of Partner): > 64 µg/mL
- Synergy FIC (E.faecalis 78097 (van B); E.faecalis 78097 (van B), FIC index of PFOB + labelled partner, <0.5 = synergy): 0.156
- MIC of partner antibiotic in the presence of PFOB at 0.5 mg/L (E.faecalis 78097 (van B); E.faecalis 78097 (van B), PFOB 0.5 mg/L): >64 µg/mL
- MIC of partner antibiotic in the presence of PFOB at 1 mg/L (E.faecalis 78097 (van B); E.faecalis 78097 (van B), PFOB 1 mg/L): >64 µg/mL
- MIC of partner antibiotic in the presence of PFOB at 2 mg/L (E.faecalis 78097 (van B); E.faecalis 78097 (van B), PFOB 2 mg/L): 32 µg/mL
- MIC of partner antibiotic in the presence of PFOB at 4 mg/L (E.faecalis 78097 (van B); E.faecalis 78097 (van B), PFOB 4 mg/L): 16 µg/mL
- MIC of partner antibiotic in the presence of PFOB at 8 mg/L (E.faecalis 78097 (van B); E.faecalis 78097 (van B), PFOB 8 mg/L): 16 µg/mL
- MIC of partner antibiotic in the presence of PFOB at 16 mg/L (E.faecalis 78097 (van B); E.faecalis 78097 (van B), PFOB 16 mg/L): 8 µg/mL
- MIC of partner antibiotic in the presence of PFOB at 32 mg/L (E.faecalis 78097 (van B); E.faecalis 78097 (van B), PFOB 32 mg/L): 4 µg/mL
- MIC of PFOB & Partner: Partner concentration (E.faecalis 78097 (van B); E.faecalis 78097 (van B), optimum synergistic combination with PFOB, second figure (partner)): 16 µg/mL
- MIC (E.faecalis 78097 (van B); Enterococcus faecalis, E.faecalis 78097 (van B), partner antibiotic alone, read-out: MIC (alone) of Partner): > 64 µg/mL
- synergy with PFOB (E.faecalis 78097 (van B); checkerboard, E. faecalis 78097, vanB-mediated vancomycin resistance, in words): Synergy was also observed
- MIC of partner antibiotic in the presence of PFOB at 0.5 mg/L (E. faecalis ATCC 10541; E. faecalis ATCC 10541, PFOB 0.5 mg/L): >64 µg/mL
- MIC of partner antibiotic in the presence of PFOB at 1 mg/L (E. faecalis ATCC 10541; E. faecalis ATCC 10541, PFOB 1 mg/L): >64 µg/mL
- MIC of partner antibiotic in the presence of PFOB at 2 mg/L (E. faecalis ATCC 10541; E. faecalis ATCC 10541, PFOB 2 mg/L): >64 µg/mL
- MIC of partner antibiotic in the presence of PFOB at 4 mg/L (E. faecalis ATCC 10541; E. faecalis ATCC 10541, PFOB 4 mg/L): >64 µg/mL
- MIC of partner antibiotic in the presence of PFOB at 8 mg/L (E. faecalis ATCC 10541; E. faecalis ATCC 10541, PFOB 8 mg/L): 8 µg/mL
- MIC of partner antibiotic in the presence of PFOB at 16 mg/L (E. faecalis ATCC 10541; E. faecalis ATCC 10541, PFOB 16 mg/L): 4 µg/mL
- MIC of partner antibiotic in the presence of PFOB at 32 mg/L (E. faecalis ATCC 10541; E. faecalis ATCC 10541, PFOB 32 mg/L): <0.06 µg/mL
- MIC (E. faecalis ATCC 10541; E. faecalis ATCC 10541, optimum synergistic combination of PFOB with the labelled partner, first figure (PFOB), read-out: MIC of PFOB & Partner: PFOB concentration): 8 µg/mL
- MIC (E. faecalis ATCC 10541; E. faecalis ATCC 10541, optimum synergistic combination with PFOB, second figure (partner), read-out: MIC of PFOB & Partner: Partner concentration): 8 µg/mL
- MIC (E. faecalis ATCC 10541; E. faecalis ATCC 10541, partner antibiotic alone, read-out: MIC (alone) of Partner): > 64 µg/mL
- synergy with PFOB (E. faecalis ATCC 10541; checkerboard, E. faecium ATCC 10541 (as named), vancomycin-susceptible, in words): marked synergy
- MIC (Enterococcus strains; read-out: MIC of CAZ used in conjunction with PFOB, PFOB at 4 mg/L): < 0.06 µg/mL
- MIC (Enterococcus strains; read-out: MIC of CAZ used in isolation): > 128 µg/mL
- reduction in the MIC of CAZ by PFOB (Enterococcus strains; PFOB at 4 mg/L versus CAZ in isolation): about 2,000 fold
- activity in isolation against the Enterococcus strains tested (Enterococcus strains; compound alone, all strains of Table 1, in words): no activity
- effect on growth (viable count, time-kill) [1]: some inhibitory effect on growth

Reference: patent publication US20040176349A1, “Antibacterial composition” (priority 2001, published 2004)
